Literature values as cited in patent publication US20080114067A1, “Composition for Recovery From or Prevention of Central Nervous System Fatigue” (priority 2005, published 2008).

System: human placental cell
Settings: placental brush border tissue

SMILES | suppression of uptake of tryptophan
N[C@@H](CS)C(=O)O [L-cysteine] | could be suppressed
CC(C)C[C@H](N)C(=O)O [L-leucine] | could be suppressed
CSCC[C@H](N)C(=O)O [L-methionine] | could be suppressed
N[C@@H](Cc1ccccc1)C(=O)O [L-phenylalanine] | could be suppressed
CC(C)[C@H](N)C(=O)O [L-valine] | could be suppressed
